Assay results as given in PubChem BioAssay AID463206 (Broad Institute, 2010).
Activity calls are given as the source filed them.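 The calls were made as follows: active = caspase luminescence falls with dose and the half-maximal concentration AC50 from the fitted curve is at or below a set limit; inconclusive = flat fit at 30 to 70% signal loss, or invalid fit; inactive = AC50 above the limit, or signal rises instead.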

Each compound was assayed on INS-1E cytokine-induced caspase-3/7, Caspase-Glo luminescence, 48 h (assay: inhibitors of cytokine-induced caspase-3/7 activity, dose response, orthogonal assay for beta-cell apoptosis protection project, INS-1E rat cells, luminescence (AID 463206)).
With `COc1ccc(S(=O)(=O)Nc2cc(SCC(=O)O)c(O)c3ccccc23)cc1` the AC50 was > 26 µM (inactive). `COc1ccc(Cl)c(Cn2c(NCc3ccco3)nc3c2c(=O)n(C)c(=O)n3C)c1` was tested, and the AC50 was > 26 µM (inactive). With `Nc1c(Cl)ncnc1N/N=C/c1ccccn1` the AC50 was > 26 µM (inactive). For `O=C(NC(NC(=S)Nc1ccccc1)C(Cl)(Cl)Cl)c1cccc(Cl)c1` (stereo not given), the AC50 was > 26 µM (inactive). `CC(=O)N1CCN(c2ccc(Oc3ccc([N+](=O)[O-])c(C(F)(F)F)c3)cc2)CC1` was tested, and the AC50 was > 26 µM (inactive). `CCCCS(=O)(=O)/C=C\C=C/S(=O)(=O)CCCC` was tested, and the AC50 was > 26 µM (inactive). `O=C(CN1CCCc2ccccc21)N/N=C/c1ccccc1O` was tested, and the AC50 was > 26 µM (inactive). In the case of `O=C(N/N=C/c1ccc(O)cc1O)c1ccc(NC(=O)C2CCCCC2)cc1`, the AC50 is reported as > 26 µM (inactive). With `CCOc1ccc(OCC)c(S(=O)(=O)NCCOC23CC4CC(CC(C4)C2)C3)c1` the AC50 was 15.9 µM. `Cc1cccc(/C=C/C(=O)c2ccc([N+](=O)[O-])o2)c1` was tested, and the AC50 was > 26 µM (inactive). For `Cc1cccc(/C=N/NC(=O)c2ccc3c(c2)OCCO3)c1O`, the AC50 was > 26 µM (inactive). In the case of `Cc1ccc(NC(=O)C2CCN(S(=O)(=O)c3ccc(N4CCCC4=O)cc3)CC2)cc1Cl`, the AC50 is reported as > 26 µM (inactive). With `Fc1ccccc1N=C1NN=C(c2ccccc2)CS1` the AC50 was > 26 µM (inactive). `O=C1N/C(=N/N=C/c2ccccc2O)SC1Cc1ccc(F)cc1` (stereo not given) was tested, and the AC50 was > 26 µM (inactive). In the case of `O=C(Nc1nc(-c2ccccn2)cs1)c1ccc(F)c(S(=O)(=O)N2CCOCC2)c1`, the AC50 is reported as > 26 µM (inactive). With `O=C(NNC(=O)c1ccccc1O)c1ccc(Cl)c(S(=O)(=O)N2CCc3ccccc32)c1` the AC50 was 27.2 µM. In the case of `Cc1ccc(C)c(NC(=S)NC(NC(=O)Cc2cccc3ccccc23)C(Cl)(Cl)Cl)c1` (stereo not given), the AC50 is reported as > 26 µM (inactive). `Cc1ccc(S(=O)(=O)N2CCCCC2c2cccnc2)c(C)c1C` (stereo not given) was tested, and the AC50 was > 26 µM (inactive). With `O=C(c1ccc(-c2ccc(Cl)cc2)o1)N1CCN(c2ccc([N+](=O)[O-])cc2Cl)CC1` the AC50 was > 26 µM (inactive). With `COc1ccc(-c2ccnc(SCC(=O)N3CCN(c4ccccc4)CC3)n2)cc1` the AC50 was > 26 µM (inactive). `COc1ccc([N+](=O)[O-])c(S(=O)(=O)c2ccccc2)n1` was tested, and the AC50 was > 26 µM (inactive). For `Cc1nc2ccccc2c(=O)n1/N=C/c1c(O)ccc2ccccc12`, the AC50 was > 26 µM (inactive). In the case of `O=C(CN1CC[n+]2c(-c3cccs3)csc21)c1ccc(-c2ccccc2)cc1`, the AC50 is reported as > 26 µM (inactive). `Cc1ccc2c(c1)c(/C=C/c1cc[n+](C)cc1)c(C)n2C` was tested, and the AC50 was > 26 µM (inactive). With `Cc1ccccc1NC(=O)/C=C/c1ccc([N+](=O)[O-])s1` the AC50 was > 26 µM (inactive). For `CNC(=O)c1cc(Oc2ccc(NC(=O)Nc3ccc(Cl)c(C(F)(F)F)c3)cc2)ccn1`, the AC50 was > 26 µM (inactive). `CC(C)OCCCNc1ncnc2c1[nH]c1ccc(F)cc12` was tested, and the AC50 was > 26 µM (inactive). In the case of `CC(C)(C)c1cc(C=C(C#N)C#N)cc(C(C)(C)C)c1O`, the AC50 is reported as > 26 µM (inactive). With `CC(=O)Nc1ccc(NC2=C/C(=N/S(=O)(=O)c3cccs3)c3ccccc3C2=O)cc1` the AC50 was > 26 µM (inactive). `COC(=O)c1ccc(NC(=O)c2nc(S(=O)(=O)Cc3cccc(C)c3)ncc2Cl)cc1` was tested, and the AC50 was > 26 µM (inactive). In the case of `O=C(c1cc2sccc2n1Cc1ccccc1)N1CCN(c2nc3ccccc3s2)CC1`, the AC50 is reported as > 26 µM (inactive). In the case of `O=c1c(Cl)c2oc3ccccc3nc-2c2ccccc12`, the AC50 is reported as > 26 µM (inactive). With `O=C(Nc1ccc(Nc2ccncc2)cc1)c1ccc(Nc2ccnc3ccc([N+](=O)[O-])cc23)cc1[N+](=O)[O-]` the AC50 was > 26 µM (inactive). With `O=C(NCCOCCOCCNC(=O)c1cccnc1)c1cccnc1` the AC50 was > 26 µM (inactive). For `CCCCCCC[N+](CC)(CC)CCCCc1ccc(Cl)cc1`, the AC50 was > 26 µM (inactive). `CC1=C/C(=N\OS(=O)(=O)c2ccccc2)C(C(C)C)=CC1=O` was tested, and the AC50 was > 26 µM (inactive). With `O=C(NCc1ccccc1)C1=C[C@@H](c2csc3ccccc23)C[C@@H](OCc2ccc(CO)cc2)O1` the AC50 was > 26 µM (inactive). `C=C(C(=O)c1ccccc1)C(C)C(=C)C(=O)c1ccccc1` was tested, and the AC50 was > 26 µM (inactive). In the case of `Nc1c(Cl)ncnc1N/N=C/c1ccc2ccccc2n1`, the AC50 is reported as > 26 µM (inactive). In the case of `CCOc1ccc(-c2c[n+]3c(n2-c2ccccc2)CCCCC3)cc1`, the AC50 is reported as > 26 µM (inactive). With `CCCCCn1c(=O)c(C(=O)NCc2ccccc2Cl)c(O)c2ccccc21` the AC50 was > 26 µM (inactive). In the case of `FC(F)(F)c1cnc(NNC(=S)Nc2ccc(Cl)cc2)c(Cl)c1`, the AC50 is reported as > 26 µM (inactive). With `CN1CCN(c2ccc(CNS(=O)(=O)Cc3cccc(C(F)(F)F)c3)cc2)CC1` the AC50 was > 26 µM (inactive). `CCCCOc1ncnc2c1[nH]c1ccc(F)cc12` was tested, and the AC50 was > 26 µM (inactive). In the case of `CCOC(=O)c1c(C)[nH]c(C(=O)OCC(=O)NC(C)(C)C)c1C`, the AC50 is reported as > 26 µM (inactive). With `COc1ccc(C(=O)NN/C(C)=C/C(=O)C(F)(F)C(F)(F)C(F)(F)F)cc1` the AC50 was > 26 µM (inactive). With `NC(=NCCCCCCN=C(N)/N=C(\N)Nc1ccc(Cl)cc1)/N=C(\N)Nc1ccc(Cl)cc1` the AC50 was > 26 µM (inactive). With `C/C(=N\Nc1nc(C)cc(-c2ccccc2)n1)c1ccccc1` the AC50 was > 26 µM (inactive). With `Cc1nc2ccccc2n1Cc1ccc(Br)cc1` the AC50 was > 26 µM (inactive). In the case of `Cc1nc(C)c(-c2csc(NCCc3ccccc3)n2)s1`, the AC50 is reported as > 26 µM (inactive). In the case of `CC(C)(C)CN1CCC(Oc2cccc(C(=O)NCCCOc3cccnc3)c2)CC1`, the AC50 is reported as > 26 µM (inactive). `c1ccc2c(CN3CCCCCCC3)c[nH]c2c1` was tested, and the AC50 was > 26 µM (inactive). With `COc1ccc(N=C2S/C(=C\c3ccc(N4CCOCC4)o3)C(=O)N2CCc2c[nH]c3ccccc23)cc1` the AC50 was > 26 µM (inactive). In the case of `COc1cc(NC(=O)c2cc3ccccc3cc2O)c(OC)cc1Cl`, the AC50 is reported as > 26 µM (inactive). `CC(C)(C)Sc1ccc2nc3c(n2c1)CCCC3` was tested, and the AC50 was > 26 µM (inactive). With `O=C(OCn1ncc(Br)c(Br)c1=O)c1ccccc1Cl` the AC50 was > 26 µM (inactive). For `CC1(C)CC(N2CCN(Cc3ccccc3)CC2)=CC(=[N+]2CCCCC2)C1`, the AC50 was > 26 µM (inactive). In the case of `COC(=O)c1ccccc1NC(=O)c1nc(S(=O)(=O)Cc2ccccc2)ncc1Cl`, the AC50 is reported as > 26 µM (inactive). `Cc1ccc(C)c(NC(=O)/C(C#N)=C/c2cn(CC(=O)NCc3ccco3)c3ccccc23)c1` was tested, and the AC50 was > 26 µM (inactive). In the case of `COc1ccc(C(=O)N/N=C(\C)c2ccccn2)cc1OC`, the AC50 is reported as > 26 µM (inactive). For `Cc1ccccc1OCCCCn1cnc2ccccc21`, the AC50 was > 12 µM (inactive). For `CCCC(=O)NC(NC(=S)Nc1ccc(N=Nc2ccccc2)cc1)C(Cl)(Cl)Cl` (stereo not given), the AC50 was > 26 µM (inactive). In the case of `CCC(CO)Oc1cc(NCc2ccc(C(C)(C)C)cc2)c2ncn(C(C)C)c2c1` (stereo not given), the AC50 is reported as > 26 µM (inactive). For `c1ccc(N2CCN(c3nc(-c4ccccn4)nc4ccccc34)CC2)cc1`, the AC50 was > 26 µM (inactive). With `Cc1ccc(S(=O)(=O)/N=C2\C=C(Nc3cccc(C(=O)O)c3)C(=O)c3ccccc32)c(C)c1` the AC50 was > 26 µM (inactive). For `Cc1cc(N/N=C/c2ccc(F)cc2)nc(-n2nc(C)cc2C)n1`, the AC50 was > 26 µM (inactive). With `Cc1ccnc(NC(=O)c2ccc([N+](=O)[O-])s2)c1` the AC50 was > 26 µM (inactive). Work on `O=[N+]([O-])c1ccc(/C=N/Nc2ccnc3cc(Cl)ccc23)o1` yielded an AC50 of 19.8 µM. In the case of `CNC1=C(N(C(C)=O)c2ccc(Br)cc2)C(=O)c2ccccc2C1=O`, the AC50 is reported as > 26 µM (inactive). With `COc1ccc([N+](=O)[O-])c(S(=O)(=O)c2ccc(Cl)cc2)n1` the AC50 was > 26 µM (inactive). For `Cc1ccc2[nH]cc(/C=C/c3cc[n+](C)cc3)c2c1`, the AC50 was > 26 µM (inactive). With `Cn1c(=O)[nH]c(=O)c2c1nc([N+](=O)[O-])n2Cc1ccccc1` the AC50 was > 26 µM (inactive). For `O=C(Nc1ccc(N2CCN(C(=O)c3ccc(Cl)cc3)CC2)cc1)c1cccnc1`, the AC50 was > 26 µM (inactive). `Cn1ncc2c(O/N=C(\N)c3ccc(C(C)(C)C)cc3)ncnc21` was tested, and the AC50 was > 26 µM (inactive). `Cc1ccc2ccc3ccc(C)nc3c2n1` was tested, and the AC50 was > 26 µM (inactive). In the case of `COc1ccccc1NS(=O)(=O)c1cccc(NC(=O)c2[nH]c(C)c(C(C)=O)c2C)c1`, the AC50 is reported as > 26 µM (inactive). With `O=C(/C=C/c1cccc(Cl)c1)c1ccc([N+](=O)[O-])o1` the AC50 was > 26 µM (inactive). With `CNc1nc(N/N=C/c2cc3c(cc2[N+](=O)[O-])OCO3)nc(Nc2ccccc2)n1` the AC50 was > 26 µM (inactive). `C(=N\Nc1ncnc2sc3c(c12)CCC3)/c1cccs1` was tested, and the AC50 was > 26 µM (inactive). `O=C(N/N=C/c1cc(Cl)ccc1O)c1ccc(Br)cc1` was tested, and the AC50 was > 26 µM (inactive). `c1ccc(-c2cc(-c3ccccc3)[n+](-c3ccccc3)c(-c3ccccc3)c2)cc1` was tested, and the AC50 was > 26 µM (inactive). In the case of `O=C(N/N=C/c1cc(Br)c(Br)s1)c1ccncc1`, the AC50 is reported as > 26 µM (inactive). In the case of `CCCCC[n+]1ccn(C2=C([O-])c3ccccc3C(=O)/C2=N\S(=O)(=O)c2ccccc2)c1`, the AC50 is reported as > 26 µM (inactive). `CC(=O)Nc1ccc(C2=CC(=O)C[C@H](c3ccc4c(c3)OCO4)C2)cc1` was tested, and the AC50 was > 26 µM (inactive). In the case of `O=C(NNc1c(Cl)cc(Cl)cc1Cl)c1cccc([N+](=O)[O-])c1`, the AC50 is reported as > 26 µM (inactive). `[O-]c1ccccc1-[n+]1c(-c2ccccc2)cc(-c2ccccc2)cc1-c1ccccc1` was tested, and the AC50 was > 26 µM (inactive). For `Cn1c(SCC(=O)N/N=C/c2ccc([N+](=O)[O-])s2)nnc1-c1ccccc1`, the AC50 was > 26 µM (inactive). `CN(C)C(=O)c1ccc(NC(=O)c2cccc(S(=O)(=O)N3CCCCCC3)c2)cc1` was tested, and the AC50 was > 26 µM (inactive). With `CCO[C@H]1OC(C(=O)N2CCN(Cc3ccc4c(c3)OCO4)CC2)=C[C@@H](c2csc3ccccc23)[C@@H]1CCCO` the AC50 was > 26 µM (inactive). In the case of `CN(C1=C(NC(=O)c2ccc(Cl)cc2)C(=O)c2ccccc2C1=O)c1ccccc1`, the AC50 is reported as > 26 µM (inactive). For `C(C#CCCCCCCCCC[n+]1ccccc1)#CCCCCCCCCC[n+]1ccccc1`, the AC50 was > 26 µM (inactive). For `Cn1nc(CC(=O)Nc2ccc3c(c2)OCCO3)c2ccccc2c1=O`, the AC50 was > 26 µM (inactive). For `Cc1cc(/C=C2/SC(=S)N(c3ccc([N+](=O)[O-])cc3)C2=O)c(C)n1-c1cccnc1`, the AC50 was > 26 µM (inactive). For `Cc1ccc(C(C)C)c(OCc2nn(CC(=O)c3ccc(OC(F)F)cc3)c3[n+]2CCCCC3)c1`, the AC50 was > 26 µM (inactive). `Cc1ccc(-n2c(Cl)c(Cl)nc(Cl)c2=O)cc1` was tested, and the AC50 was > 26 µM (inactive).
